Results: patent US9403843B2, “Cysteine protease inhibitors and uses thereof” (The Trustees of Columbia University in the City of New York, priority 2012, dated 2016)
Like-named read-outs stand apart in the source and are kept apart here.

Legend:
[1] = test system: Aβ-induced LTP impairment; experiment: LTP rescue test; settings: assessed at 650 nM
Method: Residual levels of potentiation were averaged during the last 5 min of LTP.

[2] = target: T1, full-length human Cal1 (Homo sapiens (Human), UniProt P07384); experiment: Calpain inhibition FRET assay; assay type: biochemical; settings: Table 3, 20 min incubation, FRET substrate
T1 sequence (P07384 whole entry): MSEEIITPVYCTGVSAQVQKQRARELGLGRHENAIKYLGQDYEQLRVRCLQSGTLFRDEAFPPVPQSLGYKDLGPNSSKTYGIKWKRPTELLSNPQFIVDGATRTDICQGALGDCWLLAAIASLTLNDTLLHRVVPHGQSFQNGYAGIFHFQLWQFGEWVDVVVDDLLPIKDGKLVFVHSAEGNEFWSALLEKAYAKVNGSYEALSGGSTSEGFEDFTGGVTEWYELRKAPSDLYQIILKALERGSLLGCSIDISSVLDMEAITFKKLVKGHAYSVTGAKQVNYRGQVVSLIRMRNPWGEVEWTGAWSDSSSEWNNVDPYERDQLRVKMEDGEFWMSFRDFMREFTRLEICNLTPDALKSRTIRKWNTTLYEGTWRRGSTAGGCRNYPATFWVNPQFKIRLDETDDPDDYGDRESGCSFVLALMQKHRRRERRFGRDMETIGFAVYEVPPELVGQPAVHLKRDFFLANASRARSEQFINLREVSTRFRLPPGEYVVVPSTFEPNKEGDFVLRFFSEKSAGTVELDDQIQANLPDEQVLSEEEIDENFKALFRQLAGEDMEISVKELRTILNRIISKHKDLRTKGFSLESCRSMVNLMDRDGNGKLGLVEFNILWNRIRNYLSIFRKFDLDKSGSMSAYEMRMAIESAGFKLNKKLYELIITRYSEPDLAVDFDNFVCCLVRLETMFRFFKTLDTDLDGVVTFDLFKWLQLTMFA
T1 sequence (P04632 whole entry partner): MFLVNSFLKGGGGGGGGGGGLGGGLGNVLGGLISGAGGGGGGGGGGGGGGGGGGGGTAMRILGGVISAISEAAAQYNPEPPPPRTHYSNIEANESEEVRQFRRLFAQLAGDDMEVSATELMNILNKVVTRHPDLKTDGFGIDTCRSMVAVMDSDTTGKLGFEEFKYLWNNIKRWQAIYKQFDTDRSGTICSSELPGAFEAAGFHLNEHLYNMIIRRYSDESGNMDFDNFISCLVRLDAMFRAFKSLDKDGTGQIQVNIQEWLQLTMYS

[3] = target: Full length porcine calpain (Sus scrofa (Pig), UniProt P35750); experiment: Calpain inhibition kinetics studies (Suc-LLVY-AMC substrate); assay type: biochemical
Full length porcine calpain, sequence (P35750 whole entry): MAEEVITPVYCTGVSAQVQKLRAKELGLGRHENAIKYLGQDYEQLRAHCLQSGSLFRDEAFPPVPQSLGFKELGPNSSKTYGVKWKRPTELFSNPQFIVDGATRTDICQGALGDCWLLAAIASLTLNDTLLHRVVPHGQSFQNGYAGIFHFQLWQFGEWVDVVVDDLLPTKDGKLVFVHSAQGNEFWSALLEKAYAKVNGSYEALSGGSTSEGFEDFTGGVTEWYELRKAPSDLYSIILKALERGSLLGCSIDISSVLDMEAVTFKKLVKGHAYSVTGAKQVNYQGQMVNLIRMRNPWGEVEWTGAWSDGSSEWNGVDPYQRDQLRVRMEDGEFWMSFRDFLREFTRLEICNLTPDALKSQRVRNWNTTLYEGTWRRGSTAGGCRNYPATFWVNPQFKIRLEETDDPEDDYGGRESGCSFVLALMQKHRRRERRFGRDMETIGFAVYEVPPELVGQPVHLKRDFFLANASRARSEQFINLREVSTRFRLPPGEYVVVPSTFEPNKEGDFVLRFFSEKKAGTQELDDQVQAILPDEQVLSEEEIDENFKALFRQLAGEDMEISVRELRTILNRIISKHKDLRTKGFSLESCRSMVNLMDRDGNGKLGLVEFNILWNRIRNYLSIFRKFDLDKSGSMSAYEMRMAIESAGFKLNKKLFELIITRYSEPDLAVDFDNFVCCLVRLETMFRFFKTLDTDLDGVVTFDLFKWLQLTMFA
Full length porcine calpain, sequence (P04574 whole entry partner): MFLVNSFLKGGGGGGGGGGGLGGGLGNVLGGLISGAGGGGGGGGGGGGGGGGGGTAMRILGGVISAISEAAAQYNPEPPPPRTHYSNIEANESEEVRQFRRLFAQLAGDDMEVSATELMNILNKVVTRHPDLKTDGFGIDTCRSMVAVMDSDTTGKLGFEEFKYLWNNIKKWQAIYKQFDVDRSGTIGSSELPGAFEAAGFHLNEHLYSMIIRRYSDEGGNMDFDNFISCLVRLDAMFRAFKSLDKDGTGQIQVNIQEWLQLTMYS
Text: (§1) Papain is representative of a family of typically lysosomal or secreted cysteine proteases, including the human cathepsins (B, C, F, H, K, L1-2, O, S, W, Z). […] Several methods have been reported in the literature for detailed kinetic analysis of the irreversible inhibition of cysteine proteases, including Cal1. […] (SEQ ID NO: 8). Using this substrate, kinetic parameters were derived using the method of Davies and co-workers, whereby “progress curves” were initially obtained measuring product formation as a function of time and fitted to y=P∞*(1−e^(−k*x)) (FIG. 7) (Cuerrier, D. et al., J Biol Chem 2007, 282, 9600-11; herein incorporated by reference in its entirety). […] Kinetic parameters (ki, KI, ki/KI) were obtained from double reciprocal plots (FIG. 7).
(§2) Full length porcine calpain (156 nM), or papain (236 pM) was added to a solution of 100 mM NaCl, 50 mM HEPES, pH 7.6, 1 mM TCEP, 30 μM Suc-LLVY-AMC (SEQ ID NO: 8) substrate, and inhibitor (0.5 to 50 μM). Calpain reactions also contained CaCl2 (1 mM and 100 mM for porcine and rat respectively). Both substrate and inhibitors were dissolved in acetonitrile/DMSO (1:1) with the exception of E-64, dissolved in water. Organic solvent remained <2% in all reactions, and most often <1%. Reactions were carried out in microtiter 96-well plates, with 150 μL per well, 30° C., and product formation was monitored over time by fluorescence (Ex/Em 346/444 nm, with 420 nm cutoff filter). Kinetic values of kobs were determined via non-linear regression using one-phase association analysis and linear plots of 1/kobs vs. 1/[I] provided kinetic constants ki and KI.

[4] = target: papain (Carica papaya (Papaya), UniProt P00784); experiment: biochemical; assay type: biochemical
papain, sequence (P00784 134-345): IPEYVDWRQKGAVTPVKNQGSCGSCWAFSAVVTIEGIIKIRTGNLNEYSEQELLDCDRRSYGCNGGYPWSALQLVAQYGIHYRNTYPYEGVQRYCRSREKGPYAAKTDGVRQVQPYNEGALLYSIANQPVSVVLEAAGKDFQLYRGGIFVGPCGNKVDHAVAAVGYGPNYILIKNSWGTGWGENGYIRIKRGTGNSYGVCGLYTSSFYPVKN
Text: as §1, §2

[5] = target: T1, full-length human Cal1; experiment: Calpain inhibition FRET assay; assay type: biochemical
Method: Calpain activity was measured using full-length human Cal1 in the presence of a FRET substrate. IC50 values were approximated by co-incubation of varying concentrations of the appropriate inhibitor (10, 100, 500, 1000 nM) in the presence of the FRET substrate (DABCYL)TPLK-SPPSPR-(EDANS) (SEQ ID NO: 5) and activation buffer. […] A peptide inhibitor, Z-LLY-FMK (SEQ ID NO: 6), was used as a positive control.
The Calbiochem InnoZyme activity kit was used for measuring the inhibition effect inhibitors on human erythrocyte calpain 1 activity. […] 20 μM of the FRET substrate, 10 nM of native Cal1, and 20 μM TCEP (reducing agent) were added to the reaction mixture containing assay buffer (Tris [10 mM], NaCl [100 mM], pH 7.4). Cal1 was activated by the addition of 10 μM calcium. Cleavage of the scissile bond amide bond, K-S, releases the fluorophore (EDANS) from the internal quenching molecule (DABCYL), resulting in an increase in fluorescence measured at 320 nm excitation and 480 nm emission wave lengths for 30 min. Each inhibitor was added to the reaction mixture at varying concentrations (10 nM, 100 nM, 1 μM, and 10 μM) to detect inhibition of Cal1 and reduction in fluorescence was measured by 96 well-plate reader. Approximate IC50 values of each compound were generated using linear regression within Graphpad Prism Software.

[6] = test system: APP/PS1 mice; experiment: Behavioral rescue assays (contextual fear memory, 2-day RAWM reference memory); assay type: in vivo
Text: APP/PS1-vehicle: n=15; APP/PS1-67: n=6; APP/PS1-30a: n=10; WT-vehicle: n=15; WT-67=5; WT-30a: n=8, APP/PS1-33: n=11; WT-33: n=8, APP/PS1-50: n=10; WT-50: n=8. P<0.05 in all transgenic groups treated with compound compared to their respective vehicle-treated transgenics.
APP/PS1-vehicle: n=17; APP/PS1-67: n=9; APP/PS1-30a: n=10; WT-vehicle: n=18; WT-67=9; WT-30a: n=9, APP/PS1-33: n=10; WT-33: n=9, APP/PS1-50: n=11; WT-50: n=9.
The ability of compounds to rescue the defects in associative and reference memory in 3 month old APP/PS1 animals was assessed. Capability of ameliorating the defects in contextual fear memory was tested via i.p. administration (FIG. 12). In the 2-day RAWM test, daily injections of the 67, 30a, 33 and 50 from the 2nd month of age were beneficial against the loss of contextual fear memory and reference memory.
Impact of chronic treatment on against memory loss in older APP/PS1 mice (7 months of age) with a more severe plaque load was also investigated. Compounds 67, 33 and 50 were beneficial against memory impairment following chronic administration (FIG. 13).
The ability of a prodrug to rescue the defects in associative and reference memory in 3 month old APP/PS1 animals was assessed. […] Thus, the esterification seems to improve PK but it spoils PD parameters. Compound 89 ameliorates both LTP and memory in 3 month old APP/PS1 mice (FIG. 15). Daily treatment with 89 from the age of 2 months until 3 months ameliorated the defect in LTP (A) contextual fear memory (B) and reference memory (C) in APP/PS1 mice. n=10 for all groups. P<0.05 in transgenics treated with compound compared to their respective vehicle-treated transgenics.

[7] = Plasma pharmacokinetics after i.p. administration; assay type: in vivo; settings: ICR mice; for time of peak plasma concentration: i.p., 30a 7.57, 33 7.86, 50 7.83 mg/kg; for half-life / bioavailability: mouse, ip, plasma; for bioavailability: after i.p. administration, read-out: absolute bioavailability
Method: Plasma concentrations of 30a, 33 and 50 were determined by LC-MS/MS after i.p. administration to ICR mice. The plasma concentrations at each sampling time are shown on FIG. 10. […] Indeed, following i.p. administration of 30a (7.57 mg/kg), 33 (7.86 mg/kg) and 50 (7.83 mg/kg), the peak plasma concentration occurred at 0.25, 0.5 and 0.125 h after dosing, respectively. […] The respective half-lives were ˜0.6 hrs, ˜1.1 hrs and ˜0.6 hrs.

[8] = test system: calpain-generated spectrin fragments; experiment: Spectrin proteolytic degradation products in hippocampi, western blot; assay type: in vivo; settings: for prevention of spectrin cleavage by calpains in hippocampi: i.p. treatment for 12 days, doses as for PK
Method: Studies were performed to determine capability of lowering levels of spectrin proteolytic degradation products in hippocampi from adult animals. Using western blot analysis, prevention of calpain-generated spectrin fragments was checked following i.p. treatment for 12 days with 30a, 33 and 50 at the same concentrations used for PK assessment. The array of vehicle samples was obtained by loading samples with 5, 10, 15, and 20 μg total protein/lane. Samples from compound treated animals were loaded at 15 μg/lane.

[9] = Acute and chronic toxicity, maximum tolerated dose; assay type: in vivo; settings: mice; for MTD: mouse, in vivo, no malaise or death
Text: For evaluation of acute and chronic toxicity we measured the maximum tolerated dose (MTD) in mice for 30a, 33 and 50.

[10] = test system: Cal1cat vs CathB; experiment: Competition assay for Cal1 vs CathB using the biotinylated epoxide probe; assay type: binding, rat
Method: Anti-biotin western blotting of Cal1cat (Lane 6) or CathB (Lane 7) after incubation with 27 show the expected immunoreactivity of the covalently modified proteins. […] Densitometric analysis, using means from triplicate immunoblots, was used to estimate the modification of each protein by 27 in the presence of inhibitors relative to control (Lane 1: ratio=1.0).
Cal1cat was used in place of the full length enzyme to avoid autocatalysis.
Cal1cat and CathB were pre-treated with inhibitors for 10 min, followed by a 20 min incubation with the biotinylated epoxide, 27, as illustrated in FIG. 4. […] A more quantitative estimate of selectivity was achieved by comparison of band intensities.
The appropriate inhibitor (5 μM) was pre-incubated in a mixture containing Cal1cat (2 μM), CathB (2 μM), TCEP (1 mM), and Ca^2+ (30 μM) for 10 min at 37° C. […] (5 μM) was then added and the mixture incubated an additional 20 min. The reaction was quenched with EDTA (10 μM) and samples were ran using 4-16% SDS PAGE gel, subsequently transferred to PVDF membrane and visualized by Pierce ECL (Enhanced chemiluminescent) western blotting substrate, intensity of each blot was calculated using densitometry software. Relative inhibition of each enzyme was calculated with respect to enzyme activity in the absence of inhibitor. Inhibitor preference to Cal1cat with respect to CathB, was calculated by dividing relative Cal1cat inhibition with relative CathB inhibition of that particular inhibitor.

[11] = test system: Cal I; experiment: Relative selectivity for Cal I (E64 = 1.0), Table 2; assay type: biochemical; settings: relative to E64 = 1.0
[12] = test system: primary neurons; experiment: LD50 in primary neurons; assay type: cell-based; settings: YES = LD50 ≧ 50 μM in primary neurons
[13] = ki/Ki calculated relative to E-64
[14] = mean ± S.D. of triplicate experiments
[15] = Table 2, approximate IC50, read-out: Cal I IC50
[16] = 3 month old APP/PS1 mice, 2-day RAWM, daily from 2 months
[17] = 3 month old APP/PS1 mice, daily i.p. from 2 months
[18] = APP/PS1 mice, daily treatment from 2 until 7 months

Compound	potency for LTP rescue compared with E64 [1]	IC50 [2] [nM]	IC50 [5, 15] [nM]	reference memory [6, 16]	contextual fear memory [6, 17]	contextual fear memory [6, 18]	reference memory [6, 18]	time of peak plasma concentration [7] [h]	half-life [7] [min]	bioavailability [7] [%]	prevention of spectrin cleavage by calpains in hippocampi [8]	MTD [9] [mg/kg]	further results
Cn1cnc(C[C@H](NC(=O)[C@H]2O[C@@H]2C(=O)O)C(=O)Nc2nc(-c3ccc(F)cc3)cs2)c1 [Compound 36, (2S,3S)-3-((S)-1-(4-(4-fluorophenyl)thiazol-2-ylamino)-3-(1-methyl-1H-imidazol-4-yl)-1-oxopropan-2-ylcarbamoyl)oxirane-2-carboxylic acid]	did not surpass	225	–	–	–	–	–	–	–	–	–	–	–
O=C(NCc1cn(-c2ccc(F)cc2)nn1)[C@H](Cc1cscn1)NC(=O)[C@H]1O[C@@H]1C(=O)O [Compound 50, (2S,3S)-3-((S)-1-((1-(4-fluorophenyl)-1H-1,2,3-triazol-4-yl)methylamino)-1-oxo-3-(thiazol-4-yl)propan-2-ylcarbamoyl)oxirane-2-carboxylic acid]	surpassed E64	100	125	beneficial	beneficial	ameliorated	ameliorated	0.125	~36	41.3	dramatically reduced the amount of fragments	200	Relative Selectivity ([3]; Cal1 over papain, ki/Ki relative to E-64 set at 1.0): 9.3; Ki ([3]; apparent equilibrium constant, full length Cal1, read-out: K1 Calpain1): 2900 nM; ki Calpain1 ([3]; inhibition rate, full length Cal1): 0.10 s⁻¹; relative selectivity for inhibition of Cal1 over papain (in words) ([3]; ki/Ki as measure, compared with E-64): Cal1 selectivity; rel Calpain1 [3, 13]: 1.1; 10^−4 × ki/Ki Calpain1 [3, 14]: 3.31 ± 0.32; Ki ([4]; apparent equilibrium constant, read-out: K1 Papain): 19200 nM; ki Papain ([4]; inhibition rate): 12.7 s⁻¹; rel Papain [4, 13]: 0.12; 10^−5 × ki/Ki Papain [4, 14]: 6.62 ± 0.74; Cal1 inhibition (in words) [5]: potent activity; memory impairment ([6]; 7 month old APP/PS1 mice, chronic administration): beneficial; brain penetration ([8]; inferred from hippocampal spectrin cleavage): capable of effectively penetrating the brain
O=C(Nc1nc(-c2ccc(F)cc2)cs1)C(Cc1cnc[nH]1)NC(=O)[C@H]1O[C@@H]1C(=O)O (stereo partly drawn) [Compound 30a, (2S,3S)-3-(1-(4-(4-fluorophenyl)thiazol-2-ylamino)-3-(1H-imidazol-4-yl)-1-oxopropan-2-ylcarbamoyl)oxirane-2-carboxylic acid]	–	–	100	beneficial	beneficial	ameliorated	ameliorated	0.25	~36	80.4	less efficient at preventing the spectrin cleavage	100	IC50 ([5]; Cal1, values stated in text, read-out: IC50): ~100 nM; blocking of active site modification by probe 27 (western blot signal) ([10]; 10 min pre-treatment, then 20 min with 27): little change in the CathB signal; selectivity for Cal1cat (ratio of Cal1cat versus CathB band intensities) ([10]; ratio for probe 27 alone set as 1.0, inhibitor 5 μM): highest selectivity; chronic toxicity, histopathology ([9]; chronic treatment at MTD): nephrotoxicity was noticed
CC(=O)NCCCCNC(=O)[C@H](CC(C)C)NC(=O)C1OC1c1ccccc1 (some centres unmarked) [Compound 61]	–	–	~1000	–	–	–	–	–	–	–	–	–	Relative selectivity for Cal I E64 = 1.0 [11]: 0.3; LD50 ≧ 50 μM primary neurons [12]: YES
